Assay results taken from publication PMC8126654, “Novel Pan-Pim Kinase Inhibitors With Imidazopyridazine and Thiazolidinedione Structure Exert Potent Antitumor Activities” (Frontiers in Pharmacology, 2021).

Legend:
[1] = target: T1, Pim-1 (Homo sapiens, UniProt P11309); test: Binding detection based on SPR platform (BIACORE T200); settings: 6.5, 13, 25, or 50 µM
T1 construct: purchased Life Technologies; Thermo Fisher Scientific Inc
Description: The interactions between test compounds and Pim-1 were detected by surface plasmon resonance platform BIACORE T200 (GE Healthcare Life Sciences, Buckinghamshire, England). Pim-1 was diluted to 20 μg/ml in 10 mM acetate buffer (pH 5.0), and then immobilized as a ligand in the N-hydroxysuccinimide/ethyl 3-(3-dimethylaminopropyl) carbodiimide-pre-activated CM5 sensor chip, following blocking by ethanolamine. Test compounds were diluted at 6.5, 13, 25, or 50 µM in a vehicle of 5% DMSO (v/v) in phosphate buffered saline (PBS). The dilutions were injected as analyte flow liquid phase with PBS containing 5% DMSO (v/v) as running buffer at a constant flow rate of 30 μL/min. A 2-min association time was set. The data were collected by Biacore Control Software. Kinetics and affinity parameters were evaluated with the Langmuir model (1:1) using BIA evaluation software.

[2] = system: Pim-1, 2, and 3; test: Kinetic assay (Lineweaver-Burk analysis); assay type: biochemical
Description: Enzyme kinetic experiments were performed at pH 7.5 in 50 mM HEPES buffer with 1 mM EGTA, 10 mM MgCl2, and 0.01% Brij-35. […] Plates were immediately placed into a Caliper LabChip EZ Reader II (PerkinElmer Inc.) and wells were sampled periodically throughout an 1-hour reaction period for initial reaction rate. The fluorescent product and substrate were separated and monitored on a Caliper microfluidic instrument. The conversion of substrate was calculated with Caliper software. Ki values were determined from the double reciprocal Lineweaver-Burk plot.

[3] = system: cancer cell lines; test: Cytotoxicity assay for cell survival (cancer cell proliferation); assay type: cell-based; settings: 96 hours; read-out: IC50 for proliferation of a broad spectrum of cancer cell lines (range)
Description: We obtained colon cancer HCT116 and HT-29 cells, prostate cancer PC-3, DU145, and LNCaP cells, lung cancer NCI-H460 and NCI-H522 cells, breast cancer MDA-MB-231 cells, AML MV-4-11 cells, and chronic myeloid leukemia (CML) K-562, MEG-01, and KU812 cells from American Type Culture Collection (Manassas, VA, United States); stomach cancer MKN45 cells from the Health Science Research Resources Bank (Osaka, Japan); pancreatic cancer AsPC-1 and MIA PaCa-2, and lung cancer A549 cells from DS Pharma Biomedical (Osaka, Japan). All cell lines were cultured in RPMI1640 medium (Life Technologies; Thermo Fisher Scientific Inc.) with 10% (v/v) fetal bovine serum (FBS; Sigma-Aldrich; Merck KgaA) at 37°C in 5% CO2.
Cells were seeded in 96-well plates and test compounds were added to the cultures at several concentrations.

[4] = system: MV-4-11; test: Immunoblot analysis of phosphorylation of Pim kinase substrates, MV-4-11; assay type: cell-based; settings: MV-4-11, 4 h
Description: (§1) Cells were plated overnight and then treated with test compounds for 4 hours. Then, the cells were lyzed in solubilization buffer [10 mM Tris-HCl (pH7.4), 0.1% (w/v) NP-40, 0.1% (w/v) sodium deoxycholate, 0.1% (w/v) SDS, 0.15 M NaCl, 1 mM EDTA, 10 µM aprotinin] with phosphatase inhibitor cocktails (Nakarai Tesque, Kyoto, Japan), and subjected to SDS-PAGE using 15% (w/v) gels under reducing conditions. The separated proteins were electrotransferred to Immobilon transfer membranes (Merck Millipore, Darmstadt, Germany). Then, each membrane was reacted with primary antibodies, which were subsequently complexed with appropriate horseradish peroxidase-conjugated secondary antibodies. Signals were detected using the ECL Western Blotting Detection System (GE Healthcare Life Sciences) and protein expression was quantified with a LAS-3000 Luminescent Image Analyzer (GE Healthcare Life Sciences). The protein bands were quantified using ImageQuant TL software (GE Healthcare Life Sciences).

[5] = system: PC-3; test: Immunoblot analysis of phosphorylation of Pim kinase substrates, PC-3; assay type: cell-based; settings: PC-3, 4 h
Description: as §1

[6] = system: MKN45; test: Immunoblot analysis of phosphorylation of Pim kinase substrates, MKN45; assay type: cell-based; settings: MKN45, 4 h
Description: as §1

[7] = system: MV-4-11; test: Cell cycle analysis, MV-4-11; assay type: cell-based; settings: 24 h (DMSO 52%)
Description: (§2) After treatment, cells were fixed and stained with propidium iodide using the Cell Cycle Phase Determination kit (Cayman Chemical, Ann Arbor, MI, United States) and analyzed by Guava EasyCyteTM Plus System (Merck Millipore).

[8] = system: PC-3; test: Cell cycle analysis, PC-3; assay type: cell-based; settings: 24 h (DMSO 41%)
Description: as §2

[9] = system: HCT116; test: Apoptosis assay in HCT116 (Hoechst 33342 nuclear morphology, Cell Death ELISA); assay type: cell-based
Description: For caspase-3/7 activity assay, the Caspase-Glo 3/7 Assay System (Promega, Madison, WI) was used according to the manufacturer’s protocol. […] The Caspase-Glo 3/7 reagent was then added to each well and incubated for 1 h, and caspase-3/7 activity was measured. […] After treatment, cells were stained in 0.5 μg/ml Hoechst 33342 for 30 min. Subsequently, cell morphology was observed and images were captured from random visual fields using fluorescence microscopy (Biozero BZ-8100, Keyence, Osaka, Japan). […] After treatment, DNA fragmentation was detected using the Cell Death Detection ELISA^PLUS (Roche Applied Science, Mannheim, Germany).

T1 sequence (P11309 whole entry): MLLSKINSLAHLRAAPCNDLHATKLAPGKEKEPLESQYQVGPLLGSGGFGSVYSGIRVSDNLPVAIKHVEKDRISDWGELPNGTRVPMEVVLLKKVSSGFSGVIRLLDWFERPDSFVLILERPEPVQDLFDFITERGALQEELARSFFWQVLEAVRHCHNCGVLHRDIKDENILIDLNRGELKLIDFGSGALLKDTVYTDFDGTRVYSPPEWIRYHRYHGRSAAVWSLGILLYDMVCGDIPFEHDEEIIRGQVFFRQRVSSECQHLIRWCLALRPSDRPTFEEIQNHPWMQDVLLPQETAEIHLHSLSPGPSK

## CN1CCN(c2ccc(-c3cnc4ccc(/C=C5\SC(=O)NC5=O)nn34)cc2)CC1 [YPC-21440, (Z)-5-([3-{4-(4-methylpiperazin-1-yl)phenyl}imidazo[1,2-b]pyridazin-6-yl]methylene)thiazolidine-2,4-dione]
[1]
  Binding to Pim-1 by SPR (Biacore): bound Pim-1 in a concentration-dependent manner
[2]
  Mode of inhibition of Pim kinases (Lineweaver-Burk): ATP competitive manner
[3]
  IC50: 27 to 1000 nM
[4]
  Phosphorylation level of 4EBP: decreased
[5]
  Phosphorylation levels of Bad, 4EBP, and p21: decreased
[6]
  Phosphorylation levels of Bad, 4EBP, and p21: decreased
[7]; MV-4-11, 0.3 µM
  Percentage of cells in G1 phase: 55%
[7]; MV-4-11, 1 µM
  Percentage of cells in G1 phase: 77%
[8]; PC-3, 0.3 µM
  Percentage of cells in G1 phase: 55%
[8]; PC-3, 1 µM
  Percentage of cells in G1 phase: 65%
[9]; HCT116, 1 µM, 48 h
  Chromatin condensation: induced
[9]; HCT116, ≥ 0.3 µM, 24 h
  DNA fragmentation: induced
